Experimental data from ChEMBL document CHEMBL1201862, “PubChem BioAssay data set” (2004).
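Five concentrations, 48 hours, 96-well plates. GI50 marks 50% less growth.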 The source made the active and inactive calls. Cut-off read from the data, not from the text of the source: active = GI50 up to about 1.1 µM and inactive = higher.

Columns and labels:
Assay in all cases: DTP human tumour cell line panel, 48 h
[1] = system: NCI-H522
[2] = system: IGROV-1
[3] = system: HOP-92
[4] = system: K562
[5] = system: MOLT-4
[6] = system: SW-620
[7] = system: HT-29
[8] = system: SF-268
[9] = system: RPMI-8226
[10] = system: ACHN
[11] = system: SK-MEL-5
[12] = system: KM-20L2
[13] = system: U-251
[14] = system: OVCAR-3
[15] = system: BT-549
[16] = system: A498
[17] = system: MDA-N
[18] = system: MDA-MB-435
[19] = system: Hs-578T
[20] = system: DU-145

Measured: GI50

O/N=C(\c1nc2ccc(Cl)cc2nc1O)C(O)c1ccc(Cl)cc1Cl (configuration not stated)
inactive: [1] > 100 µM | [2] > 100 µM | [3] > 100 µM | [4] > 100 µM | [5] > 100 µM | [6] > 100 µM | [7] > 100 µM | [8] > 100 µM | [9] > 100 µM | [10] > 100 µM | [11] > 100 µM | [12] > 100 µM | [13] > 100 µM | [14] > 100 µM

O=C1CSC(c2ccccc2)N1c1ccc(-c2ccc(-n3c(-c4ccccc4)nc4ccccc4c3=O)cc2)cc1 (configuration not stated)
inactive: [1] 47.8 µM | [2] > 100 µM | [3] > 100 µM | [4] 33.3 µM | [15] 43.3 µM | [16] > 100 µM | [5] 19.6 µM | [6] 97.7 µM | [7] 46.1 µM | [17] 64.9 µM | [8] 49.4 µM | [18] 49.8 µM | [19] > 100 µM | [9] 36.8 µM | [10] 53 µM | [11] 25.2 µM | [20] 85.1 µM | [13] 56.9 µM | [14] 46.5 µM

CCCCN1C(=O)C2c3[nH]c4ccccc4c3C3CCCCC3C2C1=O.CCCCN1C(=O)C2c3[nH]c4ccccc4c3[C@@H]3CCCCC3C2C1=O (configuration not stated)
inactive: [2] 19.1 µM | [4] 14.7 µM | [5] 5.69 µM | [6] 37.8 µM | [7] 28.8 µM | [8] 17.9 µM | [10] 7.36 µM | [11] 23.6 µM | [12] 36.6 µM | [13] 16.4 µM | [14] 12.4 µM

COCC(O)CN1C(N)=NC(O)C1O (configuration not stated)
inactive: [1] > 100 µM | [3] > 100 µM | [6] > 100 µM | [7] > 100 µM | [8] > 100 µM | [10] > 100 µM | [11] > 100 µM | [12] > 100 µM | [13] > 100 µM

CC(=O)OC1COC(N2C(=O)C(=O)c3cc(Br)c([N+](=O)[O-])cc32)C(OC(C)=O)C1OC(C)=O (configuration not stated)
inactive: [1] 48.8 µM | [2] > 100 µM | [3] 34.8 µM | [4] 26.2 µM | [5] 35 µM | [6] > 100 µM | [7] > 100 µM | [8] 59.2 µM | [9] > 100 µM | [10] > 100 µM | [11] > 100 µM | [12] > 100 µM | [13] > 100 µM | [14] 48.2 µM

COc1ccc(C2ON(c3ccccc3)CC=C2C)cc1 (configuration not stated)
inactive: [1] 19.2 µM | [2] > 100 µM | [4] 60.5 µM | [5] 52.4 µM | [6] > 100 µM | [7] 34.4 µM | [8] > 100 µM | [9] 43.7 µM | [10] 79.1 µM | [12] 5.48 µM | [13] 99.8 µM | [14] > 100 µM

O=c1cccccc1NCCCNc1cccccc1=O
inactive: [1] > 100 µM | [2] > 100 µM | [3] > 100 µM | [4] > 100 µM | [5] > 100 µM | [6] > 100 µM | [7] 88.3 µM | [8] > 100 µM | [9] > 100 µM | [10] > 100 µM | [12] > 100 µM | [13] > 100 µM | [14] > 100 µM

CCc1ccccc1NC(=O)/C(CC(=O)c1c(C)[n+]([O-])c2ccccc2[n+]1[O-])=N\NS(=O)(=O)c1ccc(C)cc1
inactive: [1] 16.1 µM | [2] 26.5 µM | [4] 27.2 µM | [16] > 100 µM | [5] 18 µM | [6] 25.9 µM | [7] 38.7 µM | [8] 25.8 µM | [9] 12.2 µM | [10] 57 µM | [12] > 100 µM | [13] 27 µM | [14] 12.1 µM

CC(=O)OC(=O)O/C=C\CCl
inactive: [1] 13.7 µM | [2] > 100 µM | [4] > 100 µM | [16] > 100 µM | [5] 38 µM | [6] > 100 µM | [8] > 100 µM | [9] > 100 µM | [10] > 100 µM | [11] > 100 µM | [12] > 100 µM | [13] > 100 µM | [14] > 100 µM

C[C@@H](CC(O)C(O)C(C)(C)O)C1CCC23CC12CCC1[C@@]2(C)CCC(O)C(C)(C)C2CC(OC2OC(CO)C(O)C(O)C2O)[C@]13C (some centres not stated)
inactive: [1] > 10 µM | [2] > 10 µM | [3] > 10 µM | [4] > 10 µM | [15] > 10 µM | [16] > 10 µM | [5] > 10 µM | [6] > 10 µM | [7] > 10 µM | [17] > 10 µM | [8] > 10 µM | [18] > 10 µM | [19] > 10 µM | [9] > 10 µM | [10] > 10 µM | [11] > 10 µM | [20] > 10 µM | [13] > 10 µM | [14] > 10 µM
